According to paper PMC9995496, “A screen for MeCP2-TBL1 interaction inhibitors using a luminescence-based assay” (Scientific Reports, 2023):
Structures can show the parent of a compound that is named as a salt. Where two headings read alike, the source gives them in different places. Numbered stars: 1 amine (or outer) side, 2 acyl side, 3 side chain; on linkers, the order of the positions; unused ones are H or OH. Bridge positions count the residues as written; N and C are the ends. Square brackets hold non-standard residues; d marks the D form. Peptide text beside a SMILES is read from it. * marks the point of attachment. hTyr(3S-OH,4S-OH,3'-OSO3H) = N[C@H](C(=O)O)[C@H](O)[C@@H](O)c1ccc(O)c(OS(=O)(=O)O)c1; Orn(4R-OH,5R-OH) = O=C([C@H](C[C@@H](O)[C@@H](O)N[*:3])N[*:1])[*:2]; Pro(3S-OH,4S-Me) = C[C@H]1CN[C@H](C(=O)O)[C@H]1O; X1 = CCCCCOc1ccc(-c2cc(-c3ccc(C(=O)*)cc3)no2)cc1; Gln(3R-OH) = NC(=O)C[C@@H](O)[C@H](N)C(=O)O; Hyp = O=C(O)[C@@H]1C[C@@H](O)CN1

System: PRKACA-PRKAR2A interaction (SmBiT-PRKACA / LgBiT-PRKAR2A), protein kinase A
Design: NanoLuc complementation counter-screen in cell extract, PRKACA with PRKAR2A, loss of luminescence, detects NanoLuc interference
Conditions: 0.5 h, 20 µM, inhibitor
[1] = counter-screen for NanoLuc interference
[2] = counter-screen for NanoLuc interference, Inh (PKA)

| Structure (SMILES) | Inh (PKA) [1] [%] | further results |
| --- | --- | --- |
| CCN(CC)CCN(Cc1ccc(-c2ccc(C(F)(F)F)cc2)cc1)C(=O)Cn1c(SCc2ccc(F)cc2)nc(=O)c2c1CCC2 [UM0141541:01, Darapladib] | 8.505 | – |
| NC(=O)c1ccccc1Nc1ccnc(Nc2cccc(O)c2)n1 [UM0141542:01, DB07268] | 39.9 | – |
| CC(=O)O[C@@]12CO[C@@H]1C[C@H](O)[C@@]1(C)C(=O)[C@H](O)C3=C(C)[C@@H](OC(=O)[C@H](O)[C@@H](NC(=O)OC(C)(C)C)c4ccccc4)C[C@@](O)([C@@H](OC(=O)c4ccccc4)[C@H]21)C3(C)C [UM0141543:01, Docetaxel Trihydrate] | – | Inh (PKA) [2]: 1.786% |
| CCCCc1oc2ccc(NS(C)(=O)=O)cc2c1C(=O)c1ccc(OCCCN(CCCC)CCCC)cc1 [UM0141544:01, Dronedarone] | 6.648 | – |
| CN1CCc2nc(C(=O)N[C@@H]3C[C@@H](C(=O)N(C)C)CC[C@@H]3NC(=O)C(=O)Nc3ccc(Cl)cn3)sc2C1 [UM0141545:01, Edoxaban] | – | Inh (PKA) [2]: 0.988% |
| CN1CCc2nc(C(=O)N[C@@H]3C[C@@H](C(=O)N(C)C)CC[C@@H]3NC(=O)C(=O)Nc3ccc(Cl)cn3)sc2C1 [UM0141546:01, Edoxaban tosylate monohydrate] | – | Inh (PKA) [2]: 2.853% |
| COc1cc2c(cc1OC)CN(CCc1ccc(NC(=O)c3cccc4c(=O)c5cccc(OC)c5[nH]c34)cc1)CC2 [UM0141547:01, Elacridar] | 22.37 | – |
| CN1CCC(COc2cnc(-c3cccc(Cn4nc(-c5cccc(C#N)c5)ccc4=O)c3)nc2)CC1 [UM0141548:01, EMD-1214063] | 7.378 | – |
| CCc1c(C(=O)NNC(=O)C(O)c2cc(F)cc(F)c2)ccc(O)c1C (stereo not shown) [UM0141549:01, EMD638683] | 19.67 | – |
| Cc1ccc(-c2ncc(Cl)cc2-c2ccc(S(C)(=O)=O)cc2)cn1 [UM0141550:01, Etoricoxib] | 2.792 | – |
| Cc1cc([N+](=O)[O-])ccc1NS(=O)(=O)c1cc(Cl)ccc1Cl [UM0141551:01, FH535] | 77.24 | – |
| CC(C)n1c(/C=C/[C@H](O)C[C@H](O)CC(=O)O)c(-c2ccc(F)cc2)c2ccccc21 [UM0141552:01, Fluvastatin] | 9.856 | – |
| COc1ccc2c3c1O[C@H]1C[C@@H](O)C=C[C@@]31CCN(C)C2 [UM0141554:01, Galanthamine] | – | Inh (PKA) [2]: 0.2093% |
| CC(C)=CCC[C@]1(C)C=Cc2c(O)c3c(c(CC=C(C)C)c2O1)O[C@]12C(=C[C@@H]4C[C@H]1C(C)(C)O[C@@]2(C/C=C(/C)C(=O)O)C4=O)C3=O [UM0141555:01, Gambogic Acid] | 4.588 | – |
| CS(=O)(=O)N1CCN(Cc2cc3nc(-c4cccc5[nH]ncc45)nc(N4CCOCC4)c3s2)CC1 [UM0141556:01, GDC-0941 dimethanesulfonate] | – | Inh (PKA) [2]: 7.081% |
| CC[C@H](C)n1cc(C)c2c(C(=O)NCc3c(C)cc(C)[nH]c3=O)cc(-c3ccc(N4CCNCC4)nc3)cc21 [UM0141557:01, GSK126] | 5.02 | – |
| Cn1cc(-c2ccc3c(c2)CCN3C(=O)Cc2cccc(C(F)(F)F)c2)c2c(N)ncnc21 [UM0141558:01, GSK2606414] | 15.1 | – |
| CCCc1cc(C)[nH]c(=O)c1CNC(=O)c1cc(-c2ccnc(N3CCN(C)CC3)c2)cc2c1cnn2C(C)C [UM0141559:01, GSK343] | 8.178 | – |
| N=C(N)NC(=O)Cc1c(Cl)cccc1Cl [UM0141560:01, Guanfacine hydrochloride] | 4.541 | – |
| O=S(=O)(c1cccc2c(O)nccc12)N1CCCNCC1 [UM0141561:01, Hydroxyfasudil hydrochloride] | 27.19 | – |
| O[C@@H](c1cc(C(F)(F)F)nc2c(C(F)(F)F)cccc12)[C@H]1CCCCN1 [UM0141561:02, Mefloquine hydrochloride] | 15.66 | – |
| CCCCS(=O)(=O)N[C@@H](Cc1ccc(OCCCCC2CCNCC2)cc1)C(=O)O [UM0141561:03, Tirofiban hydrochloride monohydrate] | 1.888 | – |
| N#Cc1ccc2[nH]cc(CCCCN3CCN(c4ccc5oc(C(N)=O)cc5c4)CC3)c2c1 [UM0141561:04, Vilazodone Hydrochloride] | 10.91 | – |
| COC(=O)[C@@H](N)CCCNC(=N)N[N+](=O)[O-] [UM0141561:05, L-NAME hydrochloride] | -1.626 | – |
| COc1cc2c3cc1Oc1c(OC)c(OC)cc4c1[C@@H](Cc1cccc(c1)Oc1ccc(c(O)c1)C[C@@H]3N(C)CC2)N(C)CC4 [UM0141561:06, Berbamine hydrochloride] | – | Inh (PKA): 0.4662% |
| NS(=O)(=O)NCCNc1nonc1C(=Nc1ccc(F)c(Br)c1)NO [UM0141562:01, IDO inhibitor 1] | 11.46 | – |
| NS(=O)(=O)NCCNc1nonc1/C(=N/O)Nc1ccc(F)c(Br)c1 [UM0141562:02, INCB-024360] | 8.041 | – |
| COc1cc(N2CCOCC2)ccc1NC(=O)c1csc(-c2cccnc2)n1 [UM0141564:01, IRAK inhibitor 6] | 6.368 | – |

| Structure (SMILES) | Inh (PKA) [1] [%] | further results |
| --- | --- | --- |
| Cc1ccc2nc(NC(=O)CSc3nc4c(c(=O)n3-c3ccccc3)SCC4)sc2c1 [UM0141565:01, IWP-2] | 27.82 | – |
| C/C(=C\c1csc(C)n1)[C@@H]1C[C@@H]2O[C@]2(C)CCC[C@H](C)[C@H](O)[C@@H](C)C(=O)C(C)(C)[C@@H](O)CC(=O)N1 [UM0141566:01, Ixabepilone] | 1.607 | – |
| COc1cc2ncnc(Nc3ccc(O)cc3)c2cc1OC [UM0141567:01, JANEX-1] | 3.268 | – |
| Cc1cc(NC(=O)c2cccc(NC(=O)/C=C/CN(C)C)c2)ccc1Nc1nccc(-c2cccnc2)n1 [UM0141569:01, JNK-IN-8] | 12.62 | – |
| O=C1NCCSc2c1sc1ccc(O)cc21 [UM0141570:01, kb NB 142-70] | 9.964 | – |
| N=C(N)SCCc1ccc(OCc2ccc([N+](=O)[O-])cc2)cc1 [UM0141571:01, KB-R7943 mesylate] | 7.839 | – |
| COc1cc(Oc2ccnc3cc(OC)c(OC)cc23)ccc1NC(=O)NC(C)c1nccs1 (stereo not shown) [UM0141572:01, Ki20227] | 11.8 | – |
| COc1ccc(S(=O)(=O)Nc2ccccc2CN(C)C/C=C/c2ccc(Cl)cc2)cc1 [UM0141573:01, KN-92 phosphate] | 16.02 | – |
| COc1ccc(S(=O)(=O)N(CCO)c2ccccc2CN(C)C/C=C/c2ccc(Cl)cc2)cc1 [UM0141574:01, KN-93] | – | Inh (PKA) [2]: 44.92% |
| O=C(Cc1ccc(-c2ccc(OCCN3CCOCC3)cc2)cn1)NCc1ccccc1 [UM0141575:01, KX2-391 dihydrochloride] | – | Inh (PKA) [2]: 3.66% |
| CN[C@@H](C)C(=O)N[C@H](C(=O)N1CCC[C@H]1c1nc(C(=O)c2ccc(F)cc2)cs1)C1CCCCC1 [UM0141576:01, LCL161] | 0.904 | – |
| c1ccc2c(-c3cnn4cc(-c5ccc(N6CCNCC6)cc5)cnc34)ccnc2c1 [UM0141577:01, LDN193189 Hydrochloride] | – | Inh (PKA) [2]: 9.112% |
| COC(=O)N[C@H](C(=O)N1CC2(CC2)C[C@H]1c1nc(-c2ccc3c(c2)C(F)(F)c2cc(-c4ccc5[nH]c([C@@H]6[C@H]7CC[C@H](C7)N6C(=O)[C@@H](NC(=O)OC)C(C)C)nc5c4)ccc2-3)c[nH]1)C(C)C [UM0141578:01, Ledipasvir] | 1.236 | – |
| CC1(C)O[C@H]2CC(=O)OC[C@]23[C@H]2CC[C@@]4(C)[C@H](c5ccoc5)OC(=O)[C@H]5O[C@]54[C@]2(C)C(=O)C[C@@H]13 [UM0141579:01, Limonin] | 0.3774 | – |
| COc1cc(C(=O)N2CCC(N3CCN(C)CC3)CC2)ccc1Nc1ncc2c(n1)N(C)c1ccccc1C(=O)N2C [UM0141580:01, LRRK2-IN-1] | 12.15 | – |
| O=C1NC(=O)C(c2cnc3ccccn23)=C1c1cn2c3c(cc(F)cc13)CN(C(=O)N1CCCCC1)CC2 [UM0141581:01, LY2090314] | 40.49 | – |
| Cc1ccc(C(=O)Nc2ccc(Oc3cc4cnn(C)c4cc3-c3cn[nH]c3)c(F)c2)c(=O)n1-c1ccc(F)cc1 [UM0141582:01, LY2801653] | 33.02 | – |
| C[C@@H](Oc1ccc2[nH]nc(/C=C/c3cnn(CCO)c3)c2c1)c1c(Cl)cncc1Cl [UM0141583:01, LY2874455] | 40.12 | – |
| O=C1CCC[C@@H]2[C@H]3CCCN4CCC[C@@H](CN12)[C@@H]34 [UM0141584:01, Matrine] | 1.794 | – |
| CCCCCOc1ccc(-c2cc(-c3ccc(C(=O)N[C@H]4C[C@@H](O)[C@@H](O)NC(=O)[C@@H]5[C@@H](O)[C@@H](C)CN5C(=O)[C@H]([C@H](O)CC(N)=O)NC(=O)[C@H]([C@H](O)[C@@H](O)c5ccc(O)c(OS(=O)(=O)O)c5)NC(=O)[C@@H]5C[C@@H](O)CN5C(=O)[C@H]([C@@H](C)O)NC4=O)cc3)no2)cc1 [UM0141585:01, Micafungin sodium] (X1-[Orn(4R-OH,5R-OH)]T[Hyp][hTyr(3S-OH,4S-OH,3'-OSO3H)][Gln(3R-OH)][Pro(3S-OH,4S-Me)]; lactam 1-C) | 7.755 | – |
| NC(=O)c1cccc2cn(-c3ccc([C@@H]4CCCNC4)cc3)nc12 [UM0141586:01, MK-4827] | 5.692 | – |
| C=C[C@@H]1C[C@]1(NC(=O)[C@@H]1C[C@@H]2CN1C(=O)[C@H](C(C)(C)C)NC(=O)O[C@@H]1C[C@H]1CCCCCc1nc3ccc(OC)cc3nc1O2)C(=O)NS(=O)(=O)C1CC1 [UM0141587:01, MK-5172] | 6.735 | – |
| COc1c(Cl)cc2c([nH]c3cnccc32)c1NC(=O)c1cccnc1C [UM0141589:01, MLN120B] | 5.314 | – |
| Cc1c(O)cccc1C(=O)N[C@@H](CSc1ccccc1)[C@H](O)CN1C[C@H]2CCCC[C@H]2C[C@H]1C(=O)NC(C)(C)C [UM0141590:01, Nelfinavir Mesylate] | 3.843 | – |
| CNC(=O)c1c(-c2ccc(F)cc2)oc2cc(N(CCO)S(C)(=O)=O)c(C3CC3)cc12 [UM0141591:01, Nesbuvir] | 3.406 | – |
| C[C@H](Cc1ccc(O)c(O)c1)[C@@H](C)Cc1ccc(O)c(O)c1 [UM0141592:01, Nordihydroguaiaretic acid] | 80.65 | – |
| CCOC(=O)C1=C[C@@H](OC(CC)CC)[C@H](NC(C)=O)[C@@H](N)C1 [UM0141595:01, Oseltamivir] | – | Inh (PKA) [2]: 0.436% |
